Source: paper PMC8471300, “A Computational Workflow for the Identification of Novel Fragments Acting as Inhibitors of the Activity of Protein Kinase CK1δ” (International Journal of Molecular Sciences, 2021)
Where two headings read alike, the source gives them in different places.

Columns and labels:
CK1δ [1] = molecular target: CK1δ; parameters: method as in PMID 21336281; conditions: cited from earlier work
CK1δ (aa 1-294) = molecular target: T1, CK1δ (aa 1-294) (Homo sapiens, UniProt P48730); test: CK1δ KinaseGlo luminescence enzymatic assay; assay type: biochemical; conditions: for remaining activity at 40 µM: ligand at 40 μM, mean of two independent experiments in duplicate, read-out: % CK1δ residual activity - fixed dose 40 μM; for IC50: mean of three independent experiments, 95% confidence limits in brackets, 4 μM ATP, 0.1% casein
T1 construct: Compounds were evaluated towards CK1δ (aa 1-294, Merck Millipore); purchased Merck Millipore
T1 sequence (P48730 1-294): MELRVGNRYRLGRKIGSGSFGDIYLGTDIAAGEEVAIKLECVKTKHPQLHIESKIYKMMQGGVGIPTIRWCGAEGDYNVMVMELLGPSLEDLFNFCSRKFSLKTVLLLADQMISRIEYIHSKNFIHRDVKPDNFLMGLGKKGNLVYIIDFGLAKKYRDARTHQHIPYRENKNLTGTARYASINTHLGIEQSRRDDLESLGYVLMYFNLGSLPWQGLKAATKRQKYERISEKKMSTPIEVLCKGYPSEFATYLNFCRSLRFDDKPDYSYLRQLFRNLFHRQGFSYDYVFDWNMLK
Description: Fragments were tested against CK1δ using a luminescent-based assay.
Compounds were evaluated towards CK1δ (aa 1-294, Merck Millipore, Frankfurter Strasse 250, Darmstadt, 64293, Germany) with the KinaseGlo® luminescence assay (Promega Corporation, 2800 Woods Hollow Road Madison, WI 53711, USA) following procedures reported in the literature. In detail, luminescent assays were performed in white 96-well plates, using the following buffer: 50 mM HEPES (pH 7.5),1 mM EDTA, 1 mM EGTA, and 15 mM MgCl2. […] In a typical assay, 10 μL of inhibitor solution (dissolved in DMSO at 10 mM concentration and diluted in assay buffer to the desired concentration) and 10 μL (16 ng) of enzyme solution were added to each well, followed by 20 μL of assay buffer containing 0.1% casein substrate and 4 μM ATP.
After 60 min of incubation at 30 °C, the enzymatic reactions were stopped with 40 μL of KinaseGlo® reagent (Promega). The luminescence signal (relative light unit, RLU) was recorded after 10 min at 25 °C using Tecan Infinite M100. […] Two independent experiments were performed in duplicate and the corresponding residual activity of CK1δ was obtained. Data were analyzed using Excel and reported as the mean of the two experiments with standard deviation. For IC50 determination ten different inhibitor concentrations ranging from 100 to0.026 μM were used and each point was assessedin duplicate. IC50 values are the mean of three independent experiments and 95% confidence limits were also reported. Data were analyzed using GraphPad Prism software (version 8.0).

CK1δ [2] = molecular target: CK1δ; parameters: method as in PMID 19825801; conditions: cited from earlier work
ALK kinase = molecular target: ALK kinase; parameters: method as in PMID 19825801; conditions: cited from earlier work

Compound | remaining activity at 40 µM (CK1δ (aa 1-294)) | IC50 (CK1δ (aa 1-294)) | other results
O=C(Nc1n[nH]c2ccc(-c3cn(Cc4ccccc4)nn3)cc12)c1ccccc1 [CHEMBL1999931] |  |  | Ki (CK1δ [1]; multikinase inhibitor with 3-amino-indazole scaffold): 0.316 µM
CSc1c[nH]c2ncnc(NCCCO)c12 [CHEMBL2000114] |  |  | Ki (CK1δ [1]; same kinome scan from Abbott Labs): 1 µM
N#Cc1c(N)nsc1N1CCOCC1 [Compound 28] | 37.8% | 3.31 µM | 
Nc1ncnc2sc3c(c12)CCCC3 [Compound 37] | 23.8% | 12.7 µM | 
Nc1n[nH]c2cc(Cl)ccc12 [Compound 38] | 24.4% | 20.5 µM | 
CNC(=O)c1c(F)cccc1Nc1nc(Nc2cc3c(cc2OC)CCN3C(=O)CN(C)C)nc2[nH]ccc12 [GSK1838705A] |  |  | Ki (CK1δ [2]): 3.5 µM; IC50 (ALK kinase): […]

Further lines, with some results ahead:

remaining activity at 40 µM (CK1δ (aa 1-294)) | IC50 (CK1δ (aa 1-294)) | Compound | other results
28.3% | 13.5 µM | Cc1c(C)n(-c2cccnc2)c2ncnc(N)c12 [Compound 52] | 
24.7% | 13.9 µM | Nc1ncnc2nccc(O)c12 [Compound 59] | 
28.1% | 18.1 µM | Nc1nsc(Nc2ccccc2)n1 [Compound 62] | 
35.4% | 24.9 µM | Nc1n[nH]c2cccc(F)c12 [Compound 63] | 
